In patent US20230141988A1, “PHARMACEUTICAL COMPOSITION FOR USE IN THE TREATMENT OF NEUROLOGICAL DISEASES” (Aclipse One Inc., priority 2020, published 2023):
Where “and” joins values, the source holds several entries; their conditions need not be identical. Equal values may be shown once. Read-outs that look alike come from different tables or passages of the source.

Experiments:
in vivo [1] = conditions: male, C57BL/6J, mouse
Experimental: (§1) 9 male C57BL/6J mice following administration of a single subcutaneous dose of 4.40 mg/kg. The vehicle for the subcutaneous formulation contained “0.1% sodium metabisulfite solution”.
(§2) Male C57BL/6J mice were purchased from Si Bei Fu Laboratory Animal Technology Co. Ltd (Beijing, China). The animals were about 8 weeks old with body weights of 20-30 g on the dosing date. The animals were housed in a 12-hour light/12-hour dark cycle environment and had free access to food and water. All animals were fasted overnight and fed after 4 hours collection.
(§3) For group 1, plasma samples were collected from dorsal metatarsal vein at each time point after subcutaneous administrations.
(§4) For plasma samples, about 30 μL or 300 μL of blood samples were collected from each animal via dorsal metatarsal vein or heart. These blood samples were placed into the tubes containing K2EDTA. And centrifugation at 3000 g for 10 minutes in a 4° C. centrifuge. The completion time from collection was less than 30 min. The stabilizing agent of ascorbic acid at 200 mg/mL was added in a proportion of 10% in plasma. The plasma samples were stored in a freezer at −75±15° C. prior to analysis. The completion time from collection was less than 60 min.
(§5) For brain and CSF samples, The animals were fully exsanguinated with a rising concentration of CO2 gas prior to CSF and brain collection.
(§6) For CSF collection, incision was made by scissors on the neck of the rats to expose the foramen magnum. A syringe fitted with a venoclysis needle was used to sample the CSF, the tip of the needle was inserted into the membrane of foramen magnum about 1-2 mm, and a negative pressure was applied by pulling a stopcock a small length of the syringe to extract CSF fluids into a tube. The stopcock was further actuated to until a sufficient amount of CSF was collected. There should be no blood in the CSF fluid. A stabilizing agent of ascorbic acid at 200 mg/mL was added in a proportion of 10% in CSF.
(§7) For brain collection. Brain samples were collected at an adopted time point, and washed 3 times with cold saline, then dried with clean gauze and put into the weighed tube, quick frozen in an ice box and kept at −75±15° C. All brain samples were weighted and homogenized with phosphate buffered saline (PBS) by brain weight (g) to PBS volume (mL) ratio 1:3 before analysis. The stabilizing agent of ascorbic acid at 200 mg/mL was added in a proportion of 10% in grain homogenate. The actual concentration was the detected value multiplied by the dilution factor. Brain samples were collected at designed time point, quickly homogenized and kept at −75±15° C.
(§8) Calibration standard working solutions were prepared at concentrations of 2, 5, 10, 20, 50, 100, 500, 1000, 5000 and 10000 ng/mL by serial dilution of the standard stock solution in 50% acetonitrile in water. Quality control working solutions at concentrations of 5, 10, 500 and 8000 ng/mL were prepared by serial dilution of the standard stock solution in 50% acetonitrile in water. These QC samples were prepared on the day of analysis in the same way as calibration standards.
(§9) For plasma and brain samples, 3 μL of each calibration standard working solution (2, 5, 10, 20, 50, 100, 500, 1000, 5000 and 10000 ng/mL) was added to 30 μL of the blank C57BL/6J mouse plasma or brain homogenate (with 10% 200 mg/mL ascorbic acid) to achieve calibration standards of 0.2-1000 ng/mL (0.2, 0.5, 1, 2, 5, 10, 50, 100, 500, 1000 ng/mL) in a total volume of 33 μL. Quality Control (QC) samples at 0.5 ng/mL (low-1), 1 ng/mL (low-2), 50 ng/mL (mid), 800 ng/mL (high) for plasma were prepared independently for those used for the calibration curves. These QC samples were prepared on the day of analysis in the same way as calibration standards.

[2] = male, SD, rat, in vivo, iv, 0.88 mg/kg, 1 h
Experimental: (§10) The vehicle for the IV, subcutaneous, PO and IN formulation contained “0.1% sodium metabisulfite solution”.
(§11) Male SD rats were purchased from Si Bei Fu Laboratory Animal Technology Co. Ltd (Beijing, China). The animals were about 8 weeks old with body weights of 200-300 g on the dosing date. The animals were housed in a 12-hour light/12-hour dark cycle environment and had free access to food and water. All animals were fasted overnight and fed after 4 hours collection.
(§12) Plasma samples were collected from jugular vein at each time point after IV, subcutaneous, PO and IN administrations.
(§13) About 200 μL of blood samples were collected from each animal via jugular vein. These blood samples were placed into the tubes containing K2EDTA. And centrifugation at 3000 g for 10 minutes in a 4° C. centrifuge. The completion time from collection was less than 30 min. The stabilizing agent of ascorbic acid at 200 mg/mL was added in a proportion of 10% in plasma. The plasma samples were stored in a freezer at −75±15° C. prior to analysis. The completion time from collection was less than 60 min.
(§14) Calibration standard working solutions were prepared at concentrations of 2, 5, 10, 20, 50, 100, 500, 1000, 5000 and 10000 ng/mL by serial dilution of the standard stock solution in 50% acetonitrile in water. Quality control working solutions at concentrations of 5, 10, 20, 500 and 8000 ng/mL were prepared by serial dilution of the standard stock solution in 50% acetonitrile in water. These QC samples were prepared on the day of analysis in the same way as calibration standards.
(§15) For plasma samples, 2 μL of each calibration standard working solution (2, 5, 10, 20, 50, 100, 500, 1000, 5000 and 10000 ng/mL) was added to 20 μL of the blank SD rat plasma (with 10% 200 mg/mL ascorbic acid) to achieve calibration standards of 0.2-1000 ng/mL (0.2, 0.5, 1, 2, 5, 10, 50, 100, 500, 1000 ng/mL) in a total volume of 22 μL. Quality Control (QC) samples at 0.5 ng/mL (low-1), 1 ng/mL (low-2) and 2 ng/mL (low-3), 50 ng/mL (mid), 800 ng/mL (high) for plasma were prepared independently for those used for the calibration curves. These QC samples were prepared on the day of analysis in the same way as calibration standards. The total volumes of 22 μL of standards, 22 μL of QC samples and 22 μL of unknown samples (20 μL of unknown plasma (with 10% 200 mg/mL ascorbic acid) with 2 μL 50% acetonitrile) were added to 200 μL of acetonitrile containing IS to precipitate proteins. Then the samples were vortexed for 30 sec. After centrifugation at 4° C., 4700 rpm for 30 min, and supernatant was diluted 2 times with water, 10 μL of the diluted supernatant was injected into the LC-MS/MS system for quantitative analysis.
All the samples were processed on ice.
(§16) The LC-MS/MS system consisted of two Shimadzu LC-30AD pumps, a DGU-20A5R degasser, a Rack changer II and LCMS-8060 LC/MS/MS instrument mass spectrometer.
(§17) OD-3R Particle size 3 μm 4.6 mm×150 mm column at room temperature. The mobile phase was composed of A: Water (5 mM Ammonium Acetate); B: Ethanol (5 mM Ammonium Acetate). The flow rate was 0.5 mL/min. The injection volume was 10 μL.
(§18) A multiple reaction monitoring (MRM) method was selected for quantitative analysis. […] The instrument parameters were set as follows: ion spray voltage: 8060; heating gas flow: 10 L/min; interface temperature: 250° C.; DL temperature: 220° C.; heat block temperature: 400° C.; drying gas flow: 10 L/min.
(§19) Data acquisition was performed by Lab Solutions version 5.89 Software (Shimadzu). All concentration data was reported with 3 significant figures. Data statistics were performed using Excel 2010 software.
(§20) The linear trapezoidal algorithm was used for AUC calculation.

[3] = mouse, in vivo
Experimental: as §1, §2, §3, §4, §5, §6, §7, §8, §9

[4] = Pharmacokinetic and brain penetration study, single subcutaneous dose, male C57BL/6J mouse (plasma, CSF, brain); conditions: in vivo, sc, 0.0367 mg/kg
Experimental: as §1, §2, §3, §4, §5, §6, §7, §8, §9

in vivo [5] = conditions: male, SD, rat, iv, 0.88 mg/kg
Experimental: as §10, §11, §12, §13, §14, §15
All the samples were processed on ice.
as §16, §17, §18, §19, §20

[6] = Solubility in aqueous media / aqueous buffer solutions; assay type: physicochemical; conditions: hydrochloride salt, aqueous buffer solutions

In the case of `CN1CCc2cccc3c2[C@H]1Cc1ccc(O)c(O)c1-3`, the concentration at […] (in vivo [1]; 0.0367 mg/kg, plasma concentration) is reported as 10.1 ng/mL, the concentration at 0.5 h (in vivo [1]; brain concentration, Conc. (ng/g)) is reported as 38 ng/g and the concentration at 0.5 h (in vivo [1]; brain concentration, Conc. (ng/mL)) is reported as 7.6 ng/mL. It also gave a concentration at 0.5 h (in vivo [1]; brain concentration, Mean) of 39.6 ng/g, a concentration at […] (in vivo [1]; brain concentration, Mean) of 48.4 ng/g and a concentration at 0.5 h (in vivo [1]; plasma concentration) of 5.06 ng/mL. The concentration at 1 h (in vivo [1]; plasma concentration) was 1.82 ng/mL, the concentration at […] (in vivo [1]; plasma concentration) was 7.46 ng/mL and 8.5 ng/mL and the concentration at 0.5 h (in vivo [1]; plasma concentration, Mean) was 5.15 ng/mL. The concentration at 1 h (in vivo [1]; plasma concentration, Mean) was 1.65 ng/mL, the concentration at […] (in vivo [1]; plasma concentration, Mean) was 6.5 ng/mL and 8.16 ng/mL and the AUC(0-t) (in vivo [1]; sc, 0.0367 mg/kg, AUClast) was 5.1 ng·h/mL. For the same compound, the AUC(0-inf) (in vivo [1]; sc, 0.0367 mg/kg, AUC∞) was 5.99 ng·h/mL, the Cmax (in vivo [1]; sc, 0.0367 mg/kg, Cmax) was 8.56 ng/mL and the MRT inf (in vivo [1]; sc, 0.0367 mg/kg, MRTInf) was 32.5 min. For the same compound, the plasma concentration [2] was 0.207 ng/mL, the Tmax ([3]; male, C57BL/6J, sc, 0.0367 mg/kg) was 11.7 min and the plasma concentration [3] was “BLOQ”. For the same compound, the Cmax [4] was 7.78 ng/mL, the concentration at 2 min (in vivo [5]; mean plasma concentration) was 3.75 ng/mL and the concentration at 0.5 h (in vivo [5]; mean plasma concentration) was 0.559 ng/mL. For the same compound, the concentration at 1 h (in vivo [5]; mean plasma concentration) was 0.232 ng/mL, the concentration at 2 min (in vivo [5]; plasma concentration) was 3.85 ng/mL and the concentration at 0.5 h (in vivo [5]; plasma concentration) was 0.582 ng/mL. For the same compound, the concentration at 1 h (in vivo [5]; plasma concentration) was 0.257 ng/mL.

For `CN1CCc2cccc3c2[C@@H]1Cc1ccc(O)c(O)c1-3.Cl`, the solubility [6] was “low solubility”.
